Data: publication PMC9506254, “Self-Emulsifying Formulations to Increase the Oral Bioavailability of 4,6,4′-Trimethylangelicin as a Possible Treatment for Cystic Fibrosis” (Pharmaceutics, 2022)

Columns and labels:
[1] = In vivo pharmacokinetics after oral gavage; settings: mice
Procedure: All the experimental procedures involving animals were conducted in compliance with national and international guidelines for the handling and use of experimental animals (Authorization no. 853-2018-PR, 11 November 2018) and appropriately designed to minimize their pain or discomfort. All the animals were maintained in IVC cages under controlled conditions, with a 12/12 h dark/light cycle and free access to food and drink. For the pharmacokinetic analysis, a 20 mg/kg dose of TMA, suspended in water or dissolved in formulations A.1 and B.1, was administered to mice by oral gavage, after an overnight fast. Plasma samples (n = 3 per time point) were collected from the submandibular plexus before and 0.25, 0.5, 1, 2, 3, 4, 6, 24, and 48 h after the administration of TMA. The main PK parameters were calculated by means of the Microsoft Excel plug-in PK Solver, using standard formulae [25]. The data were analyzed using the software GraphPad Prism 8.0 (GraphPad Software Inc., San Diego, CA, USA) ver. 8.0, and, if not otherwise stated, are expressed as mean ± SD. Statistical analysis was performed using Student’s t test or one-way ANOVA, when appropriate, and p < 0.05 was considered statistically significant.
TMA was extracted from the samples by treating 100 µL of plasma with 300 µL of cold acetonitrile spiked with 80 nM of IS, and then the samples were centrifuged for 10 min at 12,000× g (Hettich Mikro 120 benchtop centrifuge) and 25 °C. 10 μL of the supernatant were injected into the UHPLC system. The quantification of TMA was carried out by external calibration of the normalized signals using a seven-point calibration curve obtained by spiking blank plasma with TMA in the range 20–3000 nM. […] The metabolites related to TMA were quantified in plasma by comparing the normalized area with the TMA calibration curve as there were no suitable analytical standards available. The data obtained should be considered semiquantitative, as it is not possible to ensure the same molar response factor for TMA and its metabolites under electrospray conditions.

[2] = Lipophilicity (Log p) and BCS classification from the literature; type: physicochemical; settings: inferred from Log p and low water solubility
[3] = Solubility of TMA in oils, surfactants, co-surfactants/co-solvents; type: physicochemical; settings: 25 °C, 24 h, n = 3
Procedure: The solubility of TMA in different oils, surfactants, co-surfactants/co-solvent was determined by pouring an excess of TMA in a 2 mL glass vial containing 1 g of each excipient. The mixtures were vortexed and kept at 25 °C for 24 h, and then the samples were centrifuged at 15,000× g rpm for 10 min to remove the undissolved drug. The supernatant was diluted with a suitable solvent and the TMA was quantified by HPLC (Agilent 1220 Infinity LC, Agilent Technologies, Santa Clara, CA, USA) equipped with a UV-vis detector and a Zorbax 300SB C 18 column (4.6 × 250 mm, 5 µm, Agilent Technologies, Santa Clara, CA, USA). For the analysis of the organic solutions of TMA, a volume of 20 µL was injected into the column and a mixture of methanol and water (95:5) was used as mobile phase with a flow rate of 0.8 mL/min. Instead, for the analysis of aqueous solutions, 100 µL of sample was injected and a mixture 75:25 of methanol and water was used as mobile phase at a flow rate of 0.9 mL/min. The UV was set at a wavelength of 251 nm.

[4] = Metabolic stability with human liver microsomes; type: in vitro ADME; settings: 1 µM, 37 °C, NADPH, pH 7.4
Procedure: The metabolic stability of TMA was assessed by incubating the compound with human liver microsomes (HLMs) (BD Bioscience, Franklin Lakes, NJ, USA), as already described. Briefly, TMA was dissolved in DMSO (1 µM) and incubated at 37 °C for 10 and 30 min in 0.1 M phosphate buffer containing 200 µg of microsomes and 10 mM NADPH, pH 7.4. At the end of incubation, the reaction was stopped by addition of 200 µL cold acetonitrile. After centrifugation for 10 min at 12,000× g (Hettich Mikro 120 benchtop centrifuge), supernatants were collected and analyzed by means of ultra-high pressure liquid chromatography coupled to high-resolution mass spectrometry (UHPLC-HRMS) to assess metabolic stability of TMAas described in Section 2.8.1. […]
The UHPLC-HRMS system was equipped with Agilent 1260 Infinity II LC System coupled to an Agilent 6545 LC/Q-TOF mass analyzer (Agilent Technologies, Palo Alto, Santa Clara, CA, USA). […] The mobile phase gradient profile was as follows (t in min): t0–3 2% B; t3–18 2–100% B, t18–20 100% B; t20–30 0% B. The MS conditions were: electrospray (ESI) ionization in positive mode, gas temperature 325 °C, drying gas 10 L/min, nebulizer 20 psi, sheath gas temperature 400 °C, sheath gas flow 12 L/min, VCap 4000 V, nozzle voltage 0 V, fragmentor 180 V. Centroid full scan mass spectra were recorded in the range 100–1000 m/z with a scan rate of 1 spectrum/s. […]

[5] = In vitro dissolution test in simplified FaSSIF and FeSSIF; type: physicochemical; settings: FeSSIF compared with FaSSIF
Procedure: In vitro drug dissolution tests were performed using the USP 24 method with a dissolution apparatus 2 (Sotax AT7 Smart, Sotax, Allschwil, Switzerland) at 100 rpm. Dissolution tests were carried out under sink conditions at 37 ± 0.5 °C in 900 mL of two simplified simulated intestinal fluids to simulate the fed and fasted states. The composition of simplified FaSSIF (fasted-state simulated intestinal fluid) and FeSSIF (fed-state simulated intestinal fluid) buffers were those reported by Zoeller and Klein [24]. Samples (1 mL) were withdrawn at 5, 10, 15, 30, 45, 60, 90, 120, 240, and 300 min and the volume removed was replaced with an equal volume of temperature-equilibrated media. The samples were filtered through a 0.45 µm acetate cellulose filter and the TMA concentration was determined by HPLC-UV using the method reported in Section 2.3. The results were averaged from three replicated experiments.

[6] = 20 mg/kg TMA, oral gavage, overnight fast, plasma TMA, mean ± S.D.

| Compound | CL/F ([1]; 20 mg/kg TMA, oral gavage, overnight fast, mean ± S.D.) [mL/h/g] | AUC0-inf [1, 6] [µM·h] | Cmax [1, 6] [nM] | Tmax [1, 6] [h] | t1/2 [1, 6] [h] | BCS classification system class [2] | TMA Solubility ([3]; in Capryol PGMC (co-surfactant)) [µg/mL] | TMA Solubility ([3]; in Cremophor EL (surfactant)) [µg/mL] | TMA Solubility ([3]; in Ethanol (co-solvent)) [µg/mL] | TMA Solubility ([3]; in Labrafac Lipophile WL1349 (oil)) [µg/mL] | TMA Solubility ([3]; in Lauroglycol FCC (co-surfactant)) [µg/mL] | TMA Solubility ([3]; in Maisine CC (oil)) [µg/mL] | TMA Solubility ([3]; in Transcutol HP (co-solvent)) [µg/mL] | TMA Solubility ([3]; in Tween 80 (surfactant)) [µg/mL] | Initial amount of TMA metabolized by HLM enzymes ([4]; 10 min) [%] | Degradation of TMA by HLM enzymes ([4]; 30 min) [%] | Amount of free TMA dissolved [5] | TMA-related metabolites in mouse plasma ([1]; 20 mg/kg TMA oral, semiquantitative, TMA calibration curve, LOD about 10 nM) |
| --- | --- | --- | --- | --- | --- | --- | --- | --- | --- | --- | --- | --- | --- | --- | --- | --- | --- | --- |
| Cc1cc(=O)oc2c1cc(C)c1occ(C)c12 [TMA, 4,6,4′-trimethylangelicin] | 0.073 ± 0.029 | 0.29783 ± 0.11913 | 186 ± 21.1 | 0.38 ± 0.18 | 1.71 ± 0.16 | class II | 7346 ± 380 | 9091 ± 217 | 2509 ± 52 | 4639 ± 170 | 6484 ± 92 | 6340 ± 377 | 9568 ± 131 | 7040 ± 120 | 67 ± 15 | 90 ± 15 | increases significantly | – |
| TMA-D | – | – | – | – | – | – | – | – | – | – | – | – | – | – | – | – | – | main metabolite |
